Assay results taken from patent US4873245A, “Isolation and structural elucidation of cephalostatins 1-4” (Arizona Board of Regents, priority 1988, dated 1989).
Values after ≈ are worked out from the molar mass of the structure shown. Where two headings read alike, the source gives them in different places.

What was measured:
[1] = test system: P388 lymphocytic leukemia cell line; experiment: PS in vitro: growth inhibition of P388 lymphocytic leukemia cell line, standard N.C.I. protocol; assay type: cell-based, murine
Excerpt: Cephalostatin 1 was placed against the P388 lymphocytic leukemia cell line using standard National Cancer Institute ("N.C.I.") protocol with the following results:
Cephalostatin 2 was placed against the P388 lymphocytic leukemia cell line using standard National Cancer Institute ("N.C.I.") protocol with the following results:
Cephalostatin 3 was placed against the P388 lymphocytic leukemia cell line using standard National Cancer Institute ("N.C.I.") protocol with the following results:
Cephalostatin 4 was placed against the P388 lymphocytic leukemia cell line using standard National Cancer Institute ("N.C.I.") protocol with the following results: […]

[2] = test system: murine P388 lymphocytic leukemia; experiment: U.S. National Cancer Institute's murine P388 lymphocytic leukemia (PS system), life extension of host; assay type: in vivo; conditions: for activity against murine P388 lymphocytic leukemia (PS system), in words: mouse, in vivo

Row | SMILES | ED50 (PS cell line) [1] | Life Extension ([2]; 40 μg/Kg host body weight) [%] | activity against murine P388 lymphocytic leukemia (PS system), in words [2] | ED50 (PS cell line) ([1]; listed as cephalostatin 4) | Life Extension ([2]; 100 μg/Kg host body weight) [%]
1 | C[C@@H]1[C@]2(O[C@H]3C=C4[C@@H]5CC[C@H]6Cc7nc8c(nc7C[C@]6(C)[C@H]5C[C@@H](O)[C@]4(C)[C@]31O)C[C@@H]1CC[C@H]3C4=CC[C@@H]5[C@H](C)[C@@]6(OC[C@]45C(=O)C[C@]3(O)[C@@]1(C)C8)OC(C)(C)C[C@H]6O)O[C@](C)(CO)C[C@H]2O [Cephalostatin 2] | 10^-7 to 10^-9 μg/ml | 35 | confirmed active level |  | 
2 | C[C@@H]1[C@]2(O[C@H]3C=C4[C@@H]5CC[C@H]6Cc7nc8c(nc7C[C@]6(C)[C@H]5C[C@@H](O)[C@]4(C)[C@]31O)C[C@@H]1CC[C@H]3[C@@]45O[C@@H]4C[C@@H]4[C@H](C)[C@@]6(OC[C@@]45C(=O)C[C@]3(O)[C@@]1(C)C8)OC(C)(C)C[C@H]6O)O[C@](C)(CO)C[C@H]2O [Cephalostatin 4] | 0.00055 µg/mL (≈ 0.583 nM) |  | confirmed active level | 10^-7 to 10^-9 μg/ml | 25
3 | C[C@@H]1[C@]2(O[C@H]3C=C4[C@@H]5CC[C@H]6Cc7nc8c(nc7C[C@]6(C)[C@H]5C[C@@H](O)[C@]4(C)[C@]31O)C[C@@H]1CC[C@H]3C4=CC[C@@H]5[C@H](C)[C@@]6(OC[C@]45C(=O)C[C@]3(O)[C@@]1(C)C8)OC(C)(C)[C@@H](C)[C@H]6O)O[C@](C)(CO)C[C@H]2O [Cephalostatin 3] | 10^-7 to 10^-9 μg/ml | 30 | confirmed active level |  | 
4 | C[C@@H]1[C@]2(O[C@H]3C=C4[C@@H]5CC[C@H]6Cc7nc8c(nc7C[C@]6(C)[C@H]5C[C@@H](O)[C@]4(C)[C@]31O)C[C@@H]1CC[C@H]3C4=CC[C@@H]5[C@H](C)[C@@]6(OC[C@]45C(=O)C[C@@H]3[C@@]1(C)C8)OC(C)(C)C[C@H]6O)O[C@](C)(CO)C[C@H]2O [Cephalostatin 1] | 10^-7 to 10^-9 μg/ml | 31 | confirmed active level |  | 
